In patent US12581252B2, “Substituted pyrrolo[3,4-b]pyridines as PI3K-α inhibitors” (Relay Therapeutics, Inc., priority 2020, dated 2026):

Molecular target: H1047R PIK3CA enzyme (Homo sapiens, UniProt P42336, H1047R)
Assay: ADP-Glo Biochemical PIK3CA Kinase Assay

Sequence of H1047R PIK3CA enzyme (P42336 whole entry H1047R): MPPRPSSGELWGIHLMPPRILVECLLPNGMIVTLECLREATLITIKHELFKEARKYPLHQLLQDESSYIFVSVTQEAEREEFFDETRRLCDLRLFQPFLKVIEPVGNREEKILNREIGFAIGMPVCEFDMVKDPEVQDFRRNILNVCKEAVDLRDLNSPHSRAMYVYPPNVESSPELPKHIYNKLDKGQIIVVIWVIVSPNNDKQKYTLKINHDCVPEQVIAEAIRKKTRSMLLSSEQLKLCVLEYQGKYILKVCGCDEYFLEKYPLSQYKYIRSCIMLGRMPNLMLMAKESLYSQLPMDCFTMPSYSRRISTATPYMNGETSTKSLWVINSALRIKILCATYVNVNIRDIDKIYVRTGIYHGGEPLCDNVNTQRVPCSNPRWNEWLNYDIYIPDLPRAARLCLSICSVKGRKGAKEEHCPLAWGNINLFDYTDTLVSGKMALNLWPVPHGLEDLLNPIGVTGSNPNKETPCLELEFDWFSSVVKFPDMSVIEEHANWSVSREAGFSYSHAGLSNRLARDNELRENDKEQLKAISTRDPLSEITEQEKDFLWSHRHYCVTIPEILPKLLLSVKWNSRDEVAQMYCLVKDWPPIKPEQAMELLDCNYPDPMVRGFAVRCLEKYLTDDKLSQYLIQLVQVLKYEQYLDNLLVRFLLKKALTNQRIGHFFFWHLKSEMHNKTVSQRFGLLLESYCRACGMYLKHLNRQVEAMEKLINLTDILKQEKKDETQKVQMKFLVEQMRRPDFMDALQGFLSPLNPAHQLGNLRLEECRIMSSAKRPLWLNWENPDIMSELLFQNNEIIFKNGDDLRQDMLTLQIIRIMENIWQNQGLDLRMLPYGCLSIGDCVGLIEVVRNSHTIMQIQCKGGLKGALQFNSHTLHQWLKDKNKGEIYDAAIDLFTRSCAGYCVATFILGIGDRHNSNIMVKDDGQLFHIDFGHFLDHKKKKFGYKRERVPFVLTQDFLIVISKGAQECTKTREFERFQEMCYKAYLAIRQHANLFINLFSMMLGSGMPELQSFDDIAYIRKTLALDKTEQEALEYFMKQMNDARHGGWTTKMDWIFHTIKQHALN
Sequence of H1047R PIK3CA enzyme (P27986 whole entry partner): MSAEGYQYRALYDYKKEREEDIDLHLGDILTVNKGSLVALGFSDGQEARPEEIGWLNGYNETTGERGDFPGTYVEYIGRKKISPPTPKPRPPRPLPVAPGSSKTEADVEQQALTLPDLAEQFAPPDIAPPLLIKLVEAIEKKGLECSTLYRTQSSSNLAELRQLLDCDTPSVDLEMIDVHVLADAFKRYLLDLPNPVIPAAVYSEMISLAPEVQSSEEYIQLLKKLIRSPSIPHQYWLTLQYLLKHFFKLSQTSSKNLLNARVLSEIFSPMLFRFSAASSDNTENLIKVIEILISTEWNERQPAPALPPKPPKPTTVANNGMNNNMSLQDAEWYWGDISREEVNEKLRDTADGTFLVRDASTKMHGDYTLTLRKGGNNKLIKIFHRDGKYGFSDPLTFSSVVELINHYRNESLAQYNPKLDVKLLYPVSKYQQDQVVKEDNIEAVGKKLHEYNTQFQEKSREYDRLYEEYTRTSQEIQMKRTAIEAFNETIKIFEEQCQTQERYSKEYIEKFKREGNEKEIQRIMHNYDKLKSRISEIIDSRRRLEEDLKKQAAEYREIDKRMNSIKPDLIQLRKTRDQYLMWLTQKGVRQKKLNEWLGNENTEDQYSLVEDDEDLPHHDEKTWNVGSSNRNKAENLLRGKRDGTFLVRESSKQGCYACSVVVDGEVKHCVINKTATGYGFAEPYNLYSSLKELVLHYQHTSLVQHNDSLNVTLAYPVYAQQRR

Row | IC50 [nM] | Structure (SMILES)
1 | 1000 to 10000 | NC1CN(C(=O)Nc2cc(Br)cc3c2C(c2cc(F)ccc2Cl)NC3=O)c2ccccc21 (stereo not shown) [Compound I-2042]
2 | ≤ 100 | O=C(Nc1cc(O[C@@H]2COC[C@H]2O)cc2c1C(c1cc(F)ccc1Cl)NC2=O)c1cc(F)cc(C(F)(F)F)c1 (mixture of isomers) [Compound I-1192]
3 | 1000 to 10000 | O=C1NC(c2cc(F)ccc2Cl)c2c(NC(=O)N3CCC4(C3)CC4(F)F)cc(-c3ccc4ncnn4c3)cc21 (stereo not shown) [Compound I-1722]
4 | ≤ 100 | O=C(Nc1cc(N2CC(F)C2)nc2c1C(c1cc(F)ccc1Cl)NC2=O)c1cc(F)cc(C(F)(F)F)c1 (stereo not shown) [Compound I-488]
5 | 10000 to 100000 | O=C1NC(c2cc(F)ccc2Cl)c2c(NC(=O)N3CCOCC3)cc(Br)cc21 (stereo not shown) [Compound I-576]
6 | 10000 to 100000 | N#Cc1ccc(Cl)c(C2NC(=O)c3cccc(NC(=O)c4cc(F)cc(C(F)(F)F)c4)c32)c1 (stereo not shown) [Compound I-485]
7 | 1000 to 10000 | O=C1NC(c2cc(F)ccc2Cl)c2c(NC(=O)N3CCc4cnccc43)cccc21 (stereo not shown) [Compound I-2191]
8 | 10000 to 100000 | O=C(CCC(F)(F)F)Nc1cccc2c1[C@@H](c1cc(F)ccc1Cl)NC2=O [Compound I-2119]
9 | 1000 to 10000 | O=C1N[C@@H](c2cc(F)ccc2Cl)c2c(NC(=O)[C@@H]3CC[C@H](C(F)(F)F)C3)cccc21 [Compound I-2086]
10 | 10000 to 100000 | O=C1N[C@H](c2cc(F)ccc2Cl)c2c(NC(=O)N3C[C@](O)(C(F)(F)F)c4cc(F)ccc43)cc(C3COC3)cc21 (single isomer, unassigned) [Compound I-2653]
11 | 500 to 1000 | CNc1cc(NC(=O)N2C[C@](O)(C(F)(F)F)c3cc(F)ccc32)c2c(c1)C(=O)N[C@@H]2c1cc(F)ccc1Cl (single isomer, unassigned) [Compound I-2641]
12 | 10000 to 100000 | O=C1NC(c2cc(F)ccc2Cl)c2c(NC(=O)C3(c4cccc(F)c4)CCCC3)cc(Br)cc21 (stereo not shown) [Compound I-1638]
13 | ≤ 100 | O=C1CCC(c2cc(NC(=O)c3cc(F)cc(C(F)(F)F)c3)c3c(c2)C(=O)NC3c2cc(F)ccc2Cl)N1 (stereo not shown) [Compound I-861]
14 | 10000 to 100000 | O=C1NC(c2cc(F)ccc2Cl)c2c(NC(=O)N3C[C@@H](O)[C@@H](O)C3)cc(-c3ccc4ncnn4c3)cc21 (stereo partly shown) [Compound I-1965]
15 | 100 to 500 | O=C(Nc1cccc2c1C(c1cc(F)ccc1Cl)NC2=O)c1cc(Cl)cc(F)c1F (stereo not shown) [Compound I-767]
16 | 10000 to 100000 | O=C1N[C@@H](c2cc(F)ccc2Cl)c2c(NC(=O)C3(c4cc(F)cc(C(F)(F)F)c4)CCCC3)cc(Br)cc21 [Compound I-2071]
17 | 1000 to 10000 | O=C1NC(c2cc(F)ccc2Cl)c2c(NC(=O)N3C[C@H](O)[C@@H](C(F)(F)F)C3)cc(-c3ccc4ncnn4c3)cc21 (single isomer, unassigned) [Compound I-1902]

Row | IC50 [nM] | Structure (SMILES)
18 | 500 to 1000 | O=C1NC(c2cc(F)ccc2Cl)c2c(NC(=O)[C@H]3CCC[C@@H](C(F)(F)F)C3)cccc21 (stereo partly shown) [Compound I-2079]
19 | ≤ 100 | N#C[C@H]1C[C@@H](Oc2cc(NC(=O)c3cc(F)cc(C(F)(F)F)c3)c3c(c2)C(=O)N[C@H]3c2cc(F)ccc2Cl)C1 [Compound I-1334]
20 | 1000 to 10000 | O=C1NC(c2cc(F)ccc2Cl)c2c(NC(=O)N3CCOC(C(F)(F)F)C3)cc(Br)cc21 (stereo not shown) [Compound I-1810]
21 | ≤ 100 | O=C(Nc1cc(C2CCOCC2)cc2c1C(c1cc(F)ccc1Cl)NC2=O)c1cc(F)cc(C(F)(F)F)c1 (stereo not shown) [Compound I-1187]
22 | ≤ 100 | CC(O)(CC#N)c1cc(NC(=O)c2cc(F)cc(C(F)(F)F)c2)c2c(c1)C(=O)NC2c1cc(F)ccc1Cl (stereo not shown) [Compound I-1211]
23 | 1000 to 10000 | O=C(Nc1cc(Br)cc2c1C(c1cc(F)ccc1Cl)NC2=O)c1ccc(OC(F)(F)F)c(F)c1 (stereo not shown) [Compound I-1313]
24 | 100 to 500 | NCC(O)c1cc(NC(=O)c2cc(F)cc(C(F)(F)F)c2)c2c(c1)C(=O)NC2c1cc(F)ccc1Cl (stereo not shown) [Compound I-1290]
25 | 1000 to 10000 | O=C1NC(c2cc(F)ccc2Cl)c2c(NC(=O)C34C5C6C7C5C3C7C64)cc(Br)cc21 (stereo not shown) [Compound I-1182]
26 | 1000 to 10000 | O=C(Nc1cc(Br)cc2c1C(c1cc(F)ccc1Cl)NC2=O)c1cc(F)ccc1C(F)F (stereo not shown) [Compound I-837]
27 | ≤ 100 | Cn1nccc1C(O)c1cc(NC(=O)c2cc(F)cc(C(F)(F)F)c2)c2c(c1)C(=O)NC2c1cc(F)ccc1Cl (stereo not shown) [Compound I-1389]
28 | 1000 to 10000 | O=C1NC(c2cc(F)ccc2Cl)c2c(NC(=O)c3cc(F)cc4c(Cl)n[nH]c34)cc(Br)cc21 (stereo not shown) [Compound I-1686]
29 | 1000 to 10000 | O=C1N[C@@H](c2cc(F)ccc2Cl)c2c(NC(=O)N3C[C@H](O)c4c3ccc(F)c4F)cccc21 (single isomer, unassigned) [Compound I-2312]
30 | 1000 to 10000 | NCc1cc(NC(=O)N2C[C@](O)(C(F)F)c3cc(F)ccc32)c2c(c1)C(=O)N[C@@H]2c1cc(F)ccc1Cl (single isomer, unassigned) [Compound I-2695]
31 | 10000 to 100000 | NC1(C(F)(F)F)CC(C(=O)Nc2cc(Br)cc3c2C(c2cc(F)ccc2Cl)NC3=O)C1 (stereo not shown) [Compound I-1632]
32 | ≤ 100 | CC(=O)N1CCC[C@@H](Oc2cc(NC(=O)c3cc(F)cc(C(F)(F)F)c3)c3c(c2)C(=O)NC3c2cc(F)ccc2Cl)C1 (single isomer, unassigned) [Compound I-1431]
33 | ≤ 100 | O=C(Nc1cc(CC2(O)CCC2)cc2c1C(c1cc(F)ccc1Cl)NC2=O)c1cc(F)cc(C(F)(F)F)c1 (stereo not shown) [Compound I-706]

Further lines, the compound ahead of its results:

Row | Structure (SMILES) | IC50 [nM]
34 | CN(C(=O)Nc1cccc2c1C(c1cc(F)ccc1Cl)NC2=O)c1ccc(F)cc1 (stereo not shown) [Compound I-2435] | 10000 to 100000
35 | N#Cc1ccc(-c2cc(NC(=O)c3cc(F)cc(C(F)(F)F)c3)c3c(c2)C(=O)N[C@H]3c2cc(F)ccc2Cl)cn1 [Compound I-996] | 500 to 1000
36 | O=C1N[C@H](c2cc(F)ccc2Cl)c2c(NC(=O)N3C[C@@H](O)c4ccccc43)cc(-c3ccc4ncnn4c3)cc21 (single isomer, unassigned) [Compound I-1579] | 500 to 1000
37 | O=C1NC(c2c(F)cccc2Cl)c2c(NC(=O)c3nsc4ccccc34)cccc21 (stereo not shown) [Compound I-99] | 500 to 1000
38 | O=C(Nc1cccc2c1C(C1CCCN1)NC2=O)c1cc(F)cc(C(F)(F)F)c1 (racemic) [Compound I-1956] | 10000 to 100000
39 | N#CCCN(C(=O)c1cc(F)cc(C(F)(F)F)c1)c1cc(O)cc2c1C(c1cc(F)ccc1Cl)NC2=O (stereo not shown) [Compound I-2251] | 10000 to 100000
40 | O=C1N[C@H](c2cc(F)ccc2Cl)c2c1cc(-c1ccc3ncnn3c1)cc2S(=O)(=O)Cc1ccccc1 (single isomer, unassigned) [Compound I-1905] | 1000 to 10000
41 | CC(O)c1cc(-c2ccc3ncnn3c2)cc2c1C(c1cc(F)ccc1Cl)NC2=O (stereo not shown) [Compound I-1907] | 10000 to 100000
42 | CC(C)(O)c1cc(NC(=O)c2nsc3ccccc23)c2c(n1)C(=O)NC2c1ccccc1Cl (stereo not shown) [Compound I-250] | ≤ 100
43 | O=C(O)COc1ncc(-c2cc(NC(=O)c3cc(F)cc(C(F)(F)F)c3)c3c(c2)C(=O)NC3c2cc(F)ccc2Cl)cn1 (stereo not shown) [Compound I-1390] | ≤ 100
44 | O=C1NC(c2cc(F)ccc2Cl)c2c(OCc3ccccc3)cc(-c3ccc4ncnn4c3)cc21 (stereo not shown) [Compound I-1955] | 10000 to 100000
45 | O=C(Nc1cc(-c2cccnc2)cc2c1[C@H](c1cc(F)ccc1Cl)NC2=O)c1cc(F)cc(C(F)(F)F)c1 (stereo in doubt) [Compound I-1008] | 1000 to 10000
46 | Cc1ccccc1C1NC(=O)c2cccc(NC(=O)c3cc(F)cc(C(C)C)c3)c21 (stereo not shown) [Compound I-715] | 1000 to 10000
47 | N#Cc1ccncc1-c1cc(NC(=O)c2cc(F)cc(C(F)(F)F)c2)c2c(c1)C(=O)NC2c1cc(F)ccc1Cl (stereo not shown) [Compound I-1537] | ≤ 100
48 | O=C(Nc1cc(-c2ccc3nnc(C(F)F)n3c2)cc2c1C(c1cc(F)ccc1Cl)NC2=O)c1cc(F)cc(C(F)(F)F)c1 (stereo not shown) [Compound I-1840] | ≤ 100
49 | O=C(Nc1cccc2c1C(c1cccc(F)c1)NC2=O)c1cc(F)cc(C(F)(F)F)c1 (stereo not shown) [Compound I-390] | 1000 to 10000

Row | Structure (SMILES) | IC50 [nM]
50 | Cc1nc2cc(-c3cc(NC(=O)c4cc(F)cc(C(F)(F)F)c4)c4c(c3)C(=O)NC4c3cc(F)ccc3Cl)ccc2o1 (stereo not shown) [Compound I-1036] | ≤ 100
51 | CNC(=O)c1cc(NC(=O)c2cc(F)cc(C(F)(F)F)c2)c2c(c1)C(=O)NC2c1ccccc1C (stereo not shown) [Compound I-156] | ≤ 100
52 | Cc1c(-c2cc(NC(=O)c3cc(F)cc(C(F)(F)F)c3)c3c(c2)C(=O)NC3c2cc(F)ccc2Cl)ccc2ncnn12 (stereo not shown) [Compound I-1825] | ≤ 100
53 | O=C(Nc1cc(Cc2ccc3c(c2)CNC3=O)cc2c1[C@@H](c1cc(F)ccc1Cl)NC2=O)c1cc(F)cc(C(F)(F)F)c1 (stereo in doubt) [Compound I-1613] | 100 to 500
54 | Cc1ncc(-c2cc(NC(=O)c3cc(F)cc(Cl)c3)c3c(n2)C(=O)NC3c2cc(F)ccc2Cl)s1 (stereo not shown) [Compound I-457] | ≤ 100
55 | Cc1ccccc1C1NC(=O)c2cccc(NC(=O)c3cccc(F)c3)c21 (stereo not shown) [Compound I-475] | 1000 to 10000
56 | Nc1ccc(COc2cc(NC(=O)c3cc(F)cc(C(F)(F)F)c3)c3c(c2)C(=O)NC3c2cc(F)ccc2Cl)cn1 (stereo not shown) [Compound I-1736] | ≤ 100
57 | N#Cc1cnn(Cc2cc(NC(=O)N3C[C@](O)(C(F)(F)F)c4cc(F)ccc43)c3c(c2)C(=O)N[C@H]3c2cc(F)ccc2Cl)c1 (single isomer, unassigned) [Compound I-2671] | 500 to 1000
58 | CCn1cc(-c2cc(NC(=O)c3cc(F)cc(C(F)(F)F)c3)c3c(c2)C(=O)N[C@@H]3c2cc(F)ccc2Cl)ccc1=O [Compound I-703] | 10000 to 100000
59 | N#CCc1ccc(NC(=O)N2C[C@@](O)(C(F)(F)F)c3cc(F)ccc32)c2c1C(=O)N[C@@H]2c1cc(F)ccc1Cl (single isomer, unassigned) [Compound I-2617] | 1000 to 10000
60 | COc1ncc(-c2cc(NC(=O)c3cc(F)cc(C(F)(F)F)c3)c3c(c2)C(=O)NC3c2cc(F)ccc2Cl)cn1 (stereo not shown) [Compound I-782] | ≤ 100
61 | O=C(CCc1ccccc1)Nc1cccc2c1C(c1cc(F)ccc1Cl)NC2=O (stereo not shown) [Compound I-2362] | 10000 to 100000
62 | O=C(Nc1cc(-c2ccn3ncnc3c2F)cc2c1[C@@H](c1cc(F)ccc1Cl)NC2=O)c1cc(F)cc(C(F)(F)F)c1 [Compound I-1764] | 1000 to 10000
63 | Cn1ncc(-c2cc(NC(=O)c3cc(F)cc(C(F)(F)F)c3)c3c(c2)C(=O)NC3c2cc(F)ccc2Cl)c1C#N (stereo not shown) [Compound I-1699] | ≤ 100
64 | O=C(Nc1cccc2c1[C@@H](CC1CCCCC1)NC2=O)c1cc(F)cc(C(F)(F)F)c1 [Compound I-2057] | 1000 to 10000
